The text below walks through data of patent US20250230138A1, “COMPOUNDS HAVING A T-STRUCTURE FORMED BY AT LEAST FOUR CYCLES FOR USE IN THE TREATMENT OF CANCER AND OTHER INDICATIONS” (TheRas, Inc., priority 2022, published 2025).

pIC50: −log10 of the molar value. Like-named read-outs stand apart in the source and are kept apart here.

Assay [1] concerns the target Cys242 in human PIK3CA (157-299) (Homo sapiens (Human), UniProt P42336). As to the kind of experiment: Covalent modification assay using MALDI-TOF MS. It is filed as biochemical. The note with it: 4 h reaction time point. Summed up: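 PIK3CA (157-299), 3.33 or 1 μM in 20 mM HEPES, 150 mM NaCl, 2 mM MgCl2, pH 7.3, was incubated with compound at room temperature in the dark for 15 min, 30 min, 2 h or 4 h. Linear MALDI-TOF read-out; % modification = adduct peak height over summed heights of all protein species.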

A further assay deals with pAKT in BT474 cells. Description: Cell-based pAKT HTRF assay in BT474 cells. As to conditions: BT474 cells, 4 hr incubation, read-out: pAKT inhibition IC50 in BT474 cells. A digest of the protocol:
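Treatment lasts 4 hr in DMEM/10% FBS at 0.25% DMSO over nine 3-fold dilutions from 3 μM. The lysate is then probed by HTRF.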

Setting [2] is: 3.33 μM protein target, 1:7.5 protein to compound ratio (compounds 1-852).
The mark [3] stands for this setting: 1 μM protein target, 1:5 protein to compound ratio (compounds 853-1279).
Setting [4] is: Homo sapiens, BT-474, Compounds 10-999.

Sequence of Cys242 in human PIK3CA (157-299) (P42336 157-299): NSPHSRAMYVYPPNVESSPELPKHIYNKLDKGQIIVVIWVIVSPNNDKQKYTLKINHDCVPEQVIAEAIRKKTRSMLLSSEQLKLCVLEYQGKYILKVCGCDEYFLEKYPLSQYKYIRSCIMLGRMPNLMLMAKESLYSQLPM

Usually pIC50 stands for the negative decadic logarithm of the IC50, by convention in mol/L. For `C=CC(=O)N1CC(n2cc(-c3nc(-c4ncn(C)n4)c4ccsc4c3-c3ccc(F)cc3OCCOC)cn2)C1` [Compound 85], the “% of modification” value in assay [1] (setting [2]) was “A (percent of modification of PIK3CA protein ≥75%)”. Besides, in the assay on pAKT in BT474 cells (Compounds 10-999), the pIC50 is 6.00 to 7.00.
The like results for `C=CC(=O)N1CCn2nc(-c3nc(-c4cnc5c(c4)CN(C)CC5)c4ccsc4c3-c3ccc(F)cc3OC(C)C)cc2C1` [Compound 283] were, in that order, “A (percent of modification of PIK3CA protein ≥75%)” and greater than 7.00.
The like results for `C=CC(=O)N1CCn2nc(-c3nc(N4CCN(C(C)C)CC4)c4ccsc4c3-c3ccc(F)cc3OC(C)C)cc2C1` [Compound 208] were, in that order, “A (percent of modification of PIK3CA protein ≥75%)” and greater than 7.00.
For `C=CC(=O)N1CCC(n2cc(-c3nc(-c4ccc5c(c4)CNC(=O)C5)c4ccsc4c3-c3ccc(F)cc3)cn2)CC1` [Compound 69], in that order: “A (percent of modification of PIK3CA protein ≥75%)” and 5.52 to 6.00.
Regarding `C=C(F)C(=O)N1CCn2nc(-c3nc(-c4ccc5c(c4)CCN(C)C5)c4ccsc4c3-c3ccc(F)cc3OC(C)C)cc2C1` [Compound 293], the “% of modification” value in assay [1] (setting [2]) is listed as “A (percent of modification of PIK3CA protein ≥75%)”. In addition, the pIC50 in the assay with pAKT in BT474 cells (Compounds 10-999) is greater than 7.00.
For `C=CC(=O)N1CCn2cc(-c3nc(-c4ccc(=O)n(C)c4)c4ccsc4c3-c3ccc(F)cc3OC(C)C)nc2C1` [Compound 272], in that order: “A (percent of modification of PIK3CA protein ≥75%)” and greater than 7.00.
For `C=CC(=O)N1Cc2cc(-c3nc(-c4ccc5cnn(C)c5c4)c4ccsc4c3-c3c(F)cc(F)cc3OC[C@@H](C)O)nn2C[C@H]1C` [Compound 755], in that order: “A (percent of modification of PIK3CA protein ≥75%)” and greater than 7.00.
On to `C=CC(=O)N1CCc2nc(-c3nc(-c4ccc5c(c4)CCNC5)c4ccsc4c3-c3c(F)cc(F)cc3OCCOC)sc2C1` [Compound 366], for which, in assay [1] (setting [2]), the “% of modification” value was “A (percent of modification of PIK3CA protein ≥75%)”. Further, the pIC50 with pAKT in BT474 cells (Compounds 10-999) was 6.00 to 7.00.
For `C=C(F)C(=O)N1CCn2nc(-c3nc(-c4ccc5c(c4)CNC5=O)c4ccsc4c3-c3ccc(Cl)cc3OC(C)C)cc2C1` [Compound 361], in that order: “A (percent of modification of PIK3CA protein ≥75%)” and greater than 7.00.
For the compound `C=CC(=O)N1CCn2nc(-c3nc(-c4ccc5c(c4)CN(CC(F)F)CC5)c4ccsc4c3-c3c(F)cc(F)cc3OCCO)cc2C1C` (stereo not drawn) [Compound 1249], the “% of modification” value in assay [1] (setting [3]) is reported as “A (percent of modification of PIK3CA protein ≥75%)”. Besides, the pIC50 in the assay on pAKT in BT474 cells (Compounds 1000-1279) is greater than 7.00.
`C=CC(=O)N1CCc2nc(-c3nc(-c4ccc5c(c4)CCN(C)C5)c4ccsc4c3-c3c(F)cc(F)cc3OC(CF)CF)sc2C1` [Compound 522]: the “% of modification” value in assay [1] (setting [2]) is reported as “A (percent of modification of PIK3CA protein ≥75%)”. The pIC50 with pAKT in BT474 cells (Compounds 10-999) was 6.00 to 7.00.
Take `C=CC(=O)N1CCc2ccc(-c3nc(-c4ccc5c(c4)CNC(=O)C5)c4ccsc4c3-c3ccc(F)cc3OC)cc2C1` [Compound 80]: the “% of modification” value in assay [1] (setting [2]) is “A (percent of modification of PIK3CA protein ≥75%)”. In the assay with pAKT in BT474 cells (Compounds 10-999), the pIC50 is 6.00 to 7.00.
`C=CC(=O)N1CCn2nc(-c3nc(N4Cc5cn(C)nc5C4)c4ccsc4c3-c3c(F)cc(F)cc3OCCOC)cc2C1C` (stereo not drawn) [Compound 1230]: the “% of modification” value in assay [1] (setting [3]) is “A (percent of modification of PIK3CA protein ≥75%)”. Also, in the assay with pAKT in BT474 cells (Compounds 1000-1279), the pIC50 was 6.00 to 7.00.
For `C=CC(=O)N1CCn2nc(-c3nc(-c4ccc(C5CCCN5C)cc4)c4ccsc4c3-c3c(F)cc(F)cc3OCCOC)cc2C1C` (stereo not drawn) [Compound 1237], in that order: “A (percent of modification of PIK3CA protein ≥75%)” and greater than 7.00.
As for `C=CC(=O)N1CCc2ccc(-c3nc(-c4cnc5c(c4)CN(C)CC5)c4ccsc4c3-c3c(F)cc(F)cc3OCCO)cc2C1` [Compound 498], the “% of modification” value in assay [1] (setting [2]) is recorded as “A (percent of modification of PIK3CA protein ≥75%)”. Further, the pIC50 with pAKT in BT474 cells (Compounds 10-999) is greater than 7.00.
For `C=CC(=O)N1CCc2nc(-c3nc(-c4cnc5c(c4)CNC(=O)C5)c4ccsc4c3-c3c(F)cc(F)cc3OCCOC)sc2C1` [Compound 446], in that order: “A (percent of modification of PIK3CA protein ≥75%)” and greater than 7.00.
`C=CC(=O)N1CC(n2cc(-c3nc(-c4ccc5c(c4)CCNC5)c4ccsc4c3-c3ccc(F)cc3OC)cn2)C1` [Compound 82, 1-[3-[4-[7-(4-fluoro-2-methoxy-phenyl)-4-(1,2,3,4-tetrahydroisoquinolin-6-yl)thieno[3,2-c]pyridin-6-yl]pyrazol-1-yl]azetidin-1-yl]prop-2-en-1-one]: the “% of modification” value in assay [1] (setting [2]) is “A (percent of modification of PIK3CA protein ≥75%)”. Also, the pIC50 in the assay with pAKT in BT474 cells (setting [4]) is greater than 7.00.
`C=CC(=O)N1CCn2nc(-c3nc(-c4ccc5c(c4)c(C)nn5C)c4ccsc4c3-c3c(F)cc(F)cc3OCCO)cc2C1C` (stereo not drawn) [Compound 1101]: in assay [1] (setting [3]), the “% of modification” value is listed as “A (percent of modification of PIK3CA protein ≥75%)”. In addition, in the assay with pAKT in BT474 cells (Compounds 1000-1279), the pIC50 is greater than 7.00.
As for `C=CC(=O)N1CCn2nc(-c3nc(-c4ccc5nn(C)cc5c4)c4ccsc4c3-c3c(F)cc(F)cc3OCCO)cc2[C@@H]1C` [Compound 644], the “% of modification” value in assay [1] (setting [2]) is “A (percent of modification of PIK3CA protein ≥75%)”. Further, the pIC50 with pAKT in BT474 cells (Compounds 10-999) was greater than 7.00.
The like results for `C=CC(=O)N1Cc2cc(-c3nc(-c4ccc5c(c4)CCN(C)C5)c4ccsc4c3-c3c(F)cc(F)cc3OC[C@@H](C)O)nn2C[C@H]1C` [Compound 606] were, in that order, “D (percent of modification <25%)” and 5.52 to 6.00.
For the compound `C=CC(=O)N1CCn2nc(-c3nc(-c4ccc5c(cnn5C)c4)c4ccsc4c3-c3c(F)cc(F)cc3OCCO)cc2[C@@H]1C` [Compound 1166], the “% of modification” value in assay [1] (setting [3]) is “D (percent of modification <25%)”. For the same compound, the pIC50 with pAKT in BT474 cells (Compounds 1000-1279) was 6.00 to 7.00.
On to `C=CC(=O)N1CCC(CO)(n2cc(-c3nc(-c4ccc5c(c4)CCNC5)c4ccsc4c3-c3ccc(F)cc3OC)cn2)CC1` [Compound 180, 1-[4-[4-[7-(4-fluoro-2-methoxy-phenyl)-4-(1,2,3,4-tetrahydroisoquinolin-6-yl)thieno[3,2-c]pyridin-6-yl]pyrazol-1-yl]-4-(hydroxymethyl)-1-piperidyl]prop-2-en-1-one], for which the “% of modification” value in assay [1] (setting [2]) is given as “A (percent of modification of PIK3CA protein ≥75%)”. In addition, the pIC50 in the assay on pAKT in BT474 cells (setting [4]) is 6.00 to 7.00.
As for `C=CC(=O)N1CCn2nc(-c3nc(-c4ccc5c(c4)[C@@H](O)CC5)c4ccsc4c3-c3ccc(F)cc3OCCOC)cc2C1` [Compound 262], the “% of modification” value in assay [1] (setting [2]) is on record as “A (percent of modification of PIK3CA protein ≥75%)”. In addition, in the assay on pAKT in BT474 cells (Compounds 10-999), the pIC50 is greater than 7.00.
For the compound `C=CC(=O)N1CC(n2cc(-c3nc(-c4ccc5c(c4)CNC5=O)c4ccsc4c3-c3ccc(F)cc3OC)cn2)C1` [Compound 282], the “% of modification” value in assay [1] (setting [2]) is “A (percent of modification of PIK3CA protein ≥75%)”. Besides, in the assay with pAKT in BT474 cells (Compounds 10-999), the pIC50 was greater than 7.00.
The like results for `C=CC(=O)N1CCn2nc(-c3nc(-c4ccc5ncn(C)c5c4)c4ccsc4c3-c3c(F)cc(F)cc3OCCO)cc2[C@@H]1C` [Compound 645] were, in that order, “A (percent of modification of PIK3CA protein ≥75%)” and greater than 7.00.
The like results for `C=CC(=O)N1CCn2nc(-c3nc(-c4cnn(C)c4)c4ccsc4c3-c3ccc(F)cc3OC(F)F)nc2C1` [Compound 216] were, in that order, “A (percent of modification of PIK3CA protein ≥75%)” and 6.00 to 7.00.
As to `C=CC(=O)N1CCn2nc(-c3nc(-c4cnc5c(c4)CN(C)CC5(C)C)c4ccsc4c3-c3c(F)cc(F)cc3OCCOC)cc2[C@H]1C` [Compound 1161], the “% of modification” value in assay [1] (setting [3]) is given as “A (percent of modification of PIK3CA protein ≥75%)”. Also, in the assay on pAKT in BT474 cells (Compounds 1000-1279), the pIC50 is greater than 7.00.
The like results for `C=CC(=O)N1CCn2nc(-c3nc(-c4ccc5c(c4)CN(C)CC5)c4ccsc4c3-c3c(F)cc(F)cc3OCCO)cc2[C@H]1C` [Compound 1136] were, in that order, “A (percent of modification of PIK3CA protein ≥75%)” and greater than 7.00.
The like results for `C=CC(=O)N1CCc2ccc(-c3nc(-c4cnc(N5CCN(C)CC5)nc4)c4ccsc4c3-c3c(F)cc(F)cc3OCCOC)cc2C1` [Compound 1106] were, in that order, “A (percent of modification of PIK3CA protein ≥75%)” and 6.00 to 7.00.
On to `C=CC(=O)N1CCn2nc(-c3nc(-c4ccc(OCCN(C)C)cc4)c4ccsc4c3-c3c(F)cc(F)cc3OCCOC)cc2C1C` (stereo not drawn) [Compound 993], for which the “% of modification” value in assay [1] (setting [3]) is on record as “A (percent of modification of PIK3CA protein ≥75%)”. Further, in the assay on pAKT in BT474 cells (Compounds 10-999), the pIC50 was greater than 7.00.
Consider `C=CC(=O)N1CC(n2cc(-c3nc(C4CCN(S(C)(=O)=O)CC4)c4ccsc4c3-c3ccc(F)cc3OC)cn2)C1` [Compound 296], for which the “% of modification” value in assay [1] (setting [2]) is recorded as “B (50%<percent of modification <75%)”. Also, the pIC50 in the assay with pAKT in BT474 cells (Compounds 10-999) was 5.52 to 6.00.
Consider `C=CC(=O)N1CCc2nc(-c3nc(-c4ccc5c(c4)CCNC5)c4ccsc4c3-c3ccc(F)cc3OC(C)C)sc2C1` [Compound 155], for which, in assay [1] (setting [2]), the “% of modification” value is “A (percent of modification of PIK3CA protein ≥75%)”. For the same compound, in the assay on pAKT in BT474 cells (Compounds 10-999), the pIC50 was greater than 7.00.
Turning to `C=CC(=O)N1CCn2nc(-c3nc(-c4ccc(N5CCN(C)CC5)cc4)c4ccsc4c3-c3c(F)cc(F)cc3OCCO)cc2C1C` (stereo not drawn) [Compound 1089], in assay [1] (setting [3]), the “% of modification” value is reported as “A (percent of modification of PIK3CA protein ≥75%)”. The pIC50 in the assay on pAKT in BT474 cells (Compounds 1000-1279) was greater than 7.00.
